Drawing on patent US20210230170A1, “KRAS G12C INHIBITORS” (Mirati Therapeutics, Inc., priority 2018, published 2021), this text covers IC50 for 17 compounds.

The test has as its target T1, KRas G12C (Homo sapiens, UniProt P01116, G12C).
T1 construct: NCI-H358 cells (ATCC CRL-5807) express KRas G12C; host or cells: NCI-H358
Nature of the test: Inhibition of KRas G12C in NCI-H358 cells measured by phosphorylated ERK (Phospho-ERK). It is filed as cell-based. The conditions noted are these: pERK(Thr202/Tyr204) signal normalized with GAPDH, percent of DMSO control, 3 hours compound treatment. As for the experimental part:
The cellular inhibition of KRAs G12C by exemplary compounds of the present invention was determined by measuring the amount of a downstream marker of KRas activity, phosphorylated ERK (“Phospho-ERK”).
NCI-H358 cells (ATCC CRL-5807) express KRas G12C and were grown in RPMI medium supplemented with 10% fetal bovine serum, penicillin/streptomycin and 10 mM HEPES. Cells were plated in poly-D-Lysine coated 96-well plates at a concentration of 50,000 cells/well and allowed to attach for 8-12 hours. Diluted compounds were then added at a final concentration of 0.5% DMSO. After 3 hours, the medium was removed, 150 μL of 4% formaldehyde was added and the plates were incubated for 20 minutes. The plates were washed with PBS, and permeabilized using 150 μL of ice cold 100% methanol for 10 minutes. Non-specific antibody binding to the plates was blocked using 100 μL Licor Blocking Buffer (Li-Cor Biotechnology, Lincoln Nebr.) for 1 hour at room temperature. Positive control samples and samples lacking cells were parallel processed with test samples as standards.
The amount Phospho-ERK was determined using an antibody specific for the phosphorylated form of ERK and compared to the amount of GAPDH. Primary antibodies used for detection were added as follows: Phospho-ERK (Cell Signaling cs9101) diluted 1:500 and GAPDH (Millipore MAB374) diluted 1:5000 in Licor block+0.05% Tween 20. The plates were incubated for 2 hours at room temperature. The plates were washed with PBS+0.05% Tween 20.
Secondary antibodies used to visualize primary antibodies were added as follows: Anti-rabbit-680 diluted 1:1000 and Anti-mouse-800 diluted 1:1000 in Licor Block+0.05% Tween 20 and incubated for 1 hour at room temperature. The plates were washed with PBS+0.05% Tween 20. A 100 μL aliquot of PBS was added to each well and the plates were read on a LICOR AERIUS plate reader.
The pERK(Thr202/Tyr204) signal was normalized with the GAPDH signal and percent of DMSO control values were calculated. IC50 values were generated using a 4 parameter fit of the dose response curve. Key: “A”≤500 nM; “B”>500 nM and ND=not determined.

pIC50: −log10 of the molar value. A value given as a limit tells only on which side of the number the result lay.

T1 sequence (P01116 1-188 isoform P01116-2 G12C): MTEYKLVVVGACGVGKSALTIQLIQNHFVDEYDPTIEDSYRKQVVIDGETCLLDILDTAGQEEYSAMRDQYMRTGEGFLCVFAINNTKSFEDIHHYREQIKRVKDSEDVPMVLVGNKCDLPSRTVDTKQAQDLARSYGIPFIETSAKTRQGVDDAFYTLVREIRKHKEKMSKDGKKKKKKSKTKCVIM

Take `C=CC(=O)N1CCN(c2nc(OC[C@@H]3CCCN3C)nc3c2CCCN(c2cccc(F)c2C(F)(F)F)C3)C[C@@H]1CC#N` [Example 14, 2-[(2S)-4-[8-[3-fluoro-2-(trifluoromethyl)phenyl]-2-[[(2S)-1-methylpyrrolidin-2-yl]methoxy]-5,6,7,9-tetrahydropyrimido[4,5-c]azepin-4-yl]-1-prop-2-enoyl-piperazin-2-yl]acetonitrile]: the negative-log IC50 (pIC50) was ≥ 6.30.
To `C=C(F)C(=O)N1CCN(c2nc(OC[C@@H]3CCCN3C)nc3c2CCCN(c2c(C)ccc4[nH]ncc24)C3)C[C@@H]1CC#N` [Example 20, 2-[(2S)-1-(2-fluoroprop-2-enoyl)-4-[8-(5-methyl-1H-indazol-4-yl)-2-[[(2S)-1-methylpyrrolidin-2-yl]methoxy]-5,6,7,9-tetrahydropyrimido[4,5-c]azepin-4-yl]piperazin-2-yl]acetonitrile] belongs < 6.30.
To `C=CC(=O)N1CCN(c2nc(OC[C@@H]3CCCN3C)nc3c2CCCN(c2ccccc2C)C3)C[C@@H]1CC#N` [Example 4, 2-[(2S)-4-[2-[[(2S)-1-methylpyrrolidin-2-yl]methoxy]-8-(o-tolyl)-5,6,7,9-tetrahydropyrimido[4,5-c]azepin-4-yl]-1-prop-2-enoyl-piperazin-2-yl]acetonitrile] belongs < 6.30.
To `C=CC(=O)N1CCN(c2nc(OC[C@@H]3CCCN3C)nc3c2CCCN(c2cccc4c(C)cccc24)C3)C[C@@H]1CC#N` [Example 11, 2-((S)-1-acryloyl-4-(8-(5-methylnaphthalen-1-yl)-2-(((S)-1-methylpyrrolidin-2-yl)methoxy)-6,7,8,9-tetrahydro-5H-pyrimido[4,5-c]azepin-4-yl)piperazin-2-yl)acetonitrile] belongs < 6.30; to `C=CC(=O)N1CCN(c2nc(OC[C@@H]3CCCN3C)nc3c2CCCN(c2cccc4cccc(C)c24)C3)C[C@@H]1CC#N` [Example 1, 2-[(2S)-4-[8-(8-methyl-1-naphthyl)-2-[[(2S)-1-Methylpyrrolidin-2-yl]methoxy]-5,6,7,9-tetrahydropyrimido[4,5-c]azepin-4-yl]-1-prop-2-enoyl-piperazin-2-yl]acetonitrile], ≥ 6.30.
Regarding `C=CC(=O)N1CCN(c2nc(OC[C@@H]3CCCN3C)nc3c2CCCN(c2cccc(F)c2C)C3)C[C@@H]1CC#N` [Example 9, 2-((S)-1-acryloyl-4-(8-(3-fluoro-2-methylphenyl)-2-(((S)-1-methylpyrrolidin-2-yl)methoxy)-6,7,8,9-tetrahydro-5H-pyrimido[4,5-c]azepin-4-yl)piperazin-2-yl)acetonitrile], the pIC50 was ≥ 6.30.
To `C=C(F)C(=O)N1CCN(c2nc(OC[C@@H]3CCCN3C)nc3c2CCCN(c2cccc4cccc(C)c24)C3)C[C@@H]1CC#N` [Example 2, 2-[(2S)-1-(2-fluoroprop-2-enoyl)-4-[8-(8-methyl-1-naphthyl)-2-[[(2S)-1-methylpyrrolidin-2-yl]methoxy]-5,6,7,9-tetrahydropyrimido[4,5-c]azepin-4-yl]piperazin-2-yl]acetonitrile] belongs < 6.30; to `C=CC(=O)N1CCN(c2nc(OC[C@@H]3CCCN3C)nc3c2CCCN(c2c(C)ccc4[nH]ncc24)C3)C[C@@H]1CC#N` [Example 19, 2-[(2S)-4-[8-(5-methyl-1H-indazol-4-yl)-2-[[(2S)-1-methylpyrrolidin-2-yl]methoxy]-5,6,7,9-tetrahydropyrimido[4,5-c]azepin-4-yl]-1-prop-2-enoyl-piperazin-2-yl]acetonitrile], < 6.30.
To `C=CC(=O)N1CCN(c2ncnc3c2CCCN(c2cccc4cccc(C)c24)C3)C[C@@H]1CC#N` [Example 25, 2-[(2S)-4-[8-(8-methyl-1-naphthyl)-5,6,7,9-tetrahydropyrimido[4,5-c]azepin-4-yl]-1-prop-2-enoyl-piperazin-2-yl]acetonitrile] belongs < 6.30; to `C=CC(=O)N1CCN(c2nc(OC[C@@H]3CCCN3C)nc3c2CCCN(c2ccccc2)C3)C[C@@H]1CC#N` [Example 5, 2-[(2S)-4[2-[[(2S)-1-methylpyrrolidin-2-yl]methoxy]-8-phenyl-5,6,7,9-tetrahydropyrimido[4,5-c]azepin-4-yl]-1-prop-2-enoyl-piperazin-2-yl]acetonitrile], < 6.30.
To `C=C(F)C(=O)N1CCN(c2nc(OC[C@@H]3CCCN3C)nc3c2CCCN(c2cccc4ccccc24)C3)C[C@@H]1CC#N` [Example 22, 2-((S)-1-(2-fluoroacryloyl)-4-(2-(((S)-1-methylpyrrolidin-2-yl)methoxy)-8-(naphthalen-1-yl)-6,7,8,9-tetrahydro-5H-pyrimido[4,5-c]azepin-4-yl)piperazin-2-yl)acetonitrile] belongs < 6.30; to `C=CC(=O)N1CCN(c2nc(OC[C@@H]3CCCN3C)nc3c2CCCN(c2cccc(C(C)C)c2)C3)C[C@@H]1CC#N` [Example 8, 2-[(2S)-4-[8-(3-isopropylphenyl)-2-[[(2S)-1-methylpyrrolidin-2-yl]methoxy]-5,6,7,9-tetrahydropyrimido[4,5-c]azepin-4-yl]-1-prop-2-enoyl-piperazin-2-yl]acetonitrile], < 6.30; to `C=CC(=O)N1CCN(c2nc(OC[C@@H]3CCCN3C)nc3c2CCCN(c2ncccc2C(F)(F)F)C3)C[C@@H]1CC#N` [Example 15, 2-[(2S)-4-[2-[[(2S)-1-methylpyrrolidin-2-yl]methoxy]-8-[3-(trifluoromethyl)-2-pyridyl]-5,6,7,9-tetrahydropyrimido[4,5-c]azepin-4-yl]-1-prop-2-enoyl-piperazin-2-yl]acetonitrile], < 6.30.
Turning to `C=C(F)C(=O)N1CCN(c2ncnc3c2CCCN(c2cccc4cccc(C)c24)C3)C[C@@H]1CC#N` [Example 23, 2-[(2S)-1-(2-fluoroprop-2-enoyl)-4-[8-(8-methyl-1-naphthyl)-5,6,7,9-tetrahydropyrimido[4,5-c]azepin-4-yl]piperazin-2-yl]acetonitrile], the negative-log IC50 (pIC50) is < 6.30.
To `C=CC(=O)N1CCN(c2nc(OC[C@@H]3CCCN3C)nc3c2CCCN(c2c(C)cccc2F)C3)C[C@@H]1CC#N` [Example 18, 2-[(2S)-4-[8-(2-fluoro-6-methyl-phenyl)-2-[[(2S)-1-methylpyrrolidin-2-yl]methoxy]-5,6,7,9-tetrahydropyrimido[4,5-c]azepin-4-yl]-1-prop-2-enoyl-piperazin-2-yl]acetonitrile] belongs ≥ 6.30; to `C=CC(=O)N1CCN(c2nc(OC[C@@H]3CCCN3C)nc3c2CCCN(c2cccc4ccccc24)C3)C[C@@H]1CC#N` [Example 6, 2-[(2S)-4-[2-[[(2S)-1-methylpyrrolidin-2-yl]methoxy]-8-(1-naphthyl)-5,6,7,9-tetrahydropyrimido[4,5-c]azepin-4-yl]-1-prop-2-enoyl-piperazin-2-yl]acetonitrile], < 6.30.
Take `C=C(F)C(=O)N1CCN(c2nc(OC[C@@H]3CCCN3C)nc3c2CCCN(c2cccc4[nH]ncc24)C3)C[C@@H]1CC#N` [Example 26, 2-((S)-4-(8-(1H-indazol-4-yl)-2-(((S)-1-methylpyrrolidin-2-yl)methoxy)-6,7,8,9-tetrahydro-5H-pyrimido[4,5-c]azepin-4-yl)-1-(2-fluoroacryloyl)piperazin-2-yl)acetonitrile]: the negative logarithm of the IC50 (pIC50) is < 6.30.

What is called pIC50 is −log10 of the IC50, conventionally taken in molar units. Read a high pIC50 as a small IC50.
